Starred links: 1 amine or outer side, 2 acyl side, 3 side chain; linkers in the order of their positions; H or OH if unused. Positions of bridges follow the written chain, without caps; N, C: chain ends. Non-standard residues stand in square brackets, D forms with d. Residues, ends and D or L forms follow the SMILES beside them. Groups on a side chain read outwards from the residue. *: point of attachment. X2 = O=C(O)CCCCCCCCCCCCCCCCC(=O)N[C@@H](CCC(=O)NCOCCOCC(=O)NCOCCOCC(=O)*)C(=O)O; C20 diacid = O=C(O)CCCCCCCCCCCCCCCCCCC(=O)*; C18 diacid = O=C(O)CCCCCCCCCCCCCCCCC(=O)*; γGlu = O=C(O)[C@H](CCC(=O)[*:2])N[*:1]; Palmitoyl = CCCCCCCCCCCCCCCC(=O)*; AEEA = NCCOCCOCC(=O)O
Test: in vivo
Parameters: species or system Sprague-Dawley rats
Details: rat, iv, 0.033 mg/kg
In short: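 Peptide plasma levels measured by UPLC-MS/MS (C18, product-ion monitoring) after protein precipitation or WCX SPE, calibrated in K2EDTA/protease-inhibitor rat plasma. Dosing in non-fasted male Sprague-Dawley rats (n=3): 0.033 mg/kg over 1 h by IV or SC infusion, or 0.3 mg/kg SC bolus; sampling up to 48 h.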

Structure (SMILES)	Vd [L/kg]	clearance [mL/min/kg]	half-life [h]
CC[C@H](C)[C@H](NC(=O)[C@@H]1CCCN1C(=O)CNC(=O)[C@H](Cc1ccccc1)NC(=O)[C@H](CC(N)=O)NC(=O)[C@H](CC(N)=O)NC(=O)[C@H](CO)NC(=O)[C@H](CO)NC(=O)[C@H](CCCCN)NC(=O)[C@H](CCCCNC(=O)COCCOCNC(=O)COCCOCNC(=O)CC[C@H](NC(=O)CCCCCCCCCCCCCCCCC(=O)O)C(=O)O)NC(=O)[C@H](CC(C)C)NC(=O)[C@H](CCC(=O)O)NC(=O)[C@H](CC(N)=O)NC(=O)[C@H](C)NC(=O)[C@H](CC(C)C)NC(=O)[C@H](CCCNC(=N)N)NC(=O)[C@H](CCC(N)=O)NC(=O)[C@@H](NC(=O)[C@H](C)NC(=O)[C@@H]1CSSC[C@H](NC(=O)[C@@H](N)CO)C(=O)N[C@@H](CC(N)=O)C(=O)N[C@@H]([C@@H](C)O)C(=O)N[C@@H](CO)C(=O)N[C@@H]([C@@H](C)O)C(=O)N1)[C@@H](C)O)C(=O)N[C@@H](CC(C)C)C(=O)N1CCC[C@H]1C(=O)N1CCC[C@H]1C(=O)N[C@H](C(=O)N[C@@H](CCCCN)C(=O)N[C@H](C(=O)NCC(=O)N[C@@H](CO)C(=O)N[C@@H](CCC(=O)O)C(=O)N[C@H](C(=O)N[C@@H](Cc1ccc(O)cc1)C(N)=O)[C@@H](C)O)C(C)C)[C@@H](C)O [Compound A99] (H-SCNTSTCATQRLANELK(X2)KSSNNFGPILPPTKVGSETY-NH2; disulfide 2-7; N-terminus assumed)	0.128	0.0948	19.5
CC[C@H](C)[C@H](NC(=O)[C@@H]1CCCN1C(=O)CNC(=O)[C@H](Cc1ccccc1)NC(=O)[C@H](CC(N)=O)NC(=O)[C@H](CC(N)=O)NC(=O)[C@H](CO)NC(=O)[C@H](CO)NC(=O)[C@H](CCCCN)NC(=O)[C@H](Cc1c[nH]cn1)NC(=O)[C@H](CC(C)C)NC(=O)[C@@H](CCCCNC(=O)CC[C@H](NC(=O)CC[C@H](NC(=O)COCCOCCNC(=O)COCCOCCNC(=O)CC[C@H](NC(=O)CCCCCCCCCCCCCCCCCCC(=O)O)C(=O)O)C(=O)O)C(=O)O)NC(=O)[C@H](CC(N)=O)NC(=O)[C@H](C)NC(=O)[C@H](CC(C)C)NC(=O)[C@H](CCCNC(=N)N)NC(=O)[C@H](CCC(N)=O)NC(=O)[C@@H](NC(=O)[C@H](C)NC(=O)[C@@H]1CSSC[C@H](NC(=O)[C@@H](N)CO)C(=O)N[C@@H](CC(N)=O)C(=O)N[C@@H]([C@@H](C)O)C(=O)N[C@@H](CO)C(=O)N[C@@H]([C@@H](C)O)C(=O)N1)[C@@H](C)O)C(=O)N[C@@H](CC(C)C)C(=O)N1CCC[C@H]1C(=O)N1CCC[C@H]1C(=O)N[C@H](C(=O)N[C@@H](CCCCN)C(=O)N[C@H](C(=O)NCC(=O)N[C@@H](CO)C(=O)N[C@@H](CCC(=O)O)C(=O)N[C@H](C(=O)N[C@@H](Cc1ccc(O)cc1)C(N)=O)[C@@H](C)O)C(C)C)[C@@H](C)O [Compound A101] (H-SCNTSTCATQRLAN[dK]([γGlu-γGlu-AEEA-AEEA-γGlu-C20 diacid])LHKSSNNFGPILPPTKVGSETY-NH2; disulfide 2-7; N-terminus assumed)	0.149	0.0675	28.4
CC[C@H](C)[C@H](NC(=O)[C@@H]1CCCN1C(=O)CNC(=O)[C@H](Cc1ccccc1)NC(=O)[C@H](CC(N)=O)NC(=O)[C@H](CC(N)=O)NC(=O)[C@H](CO)NC(=O)[C@H](CO)NC(=O)[C@H](CCCCN)NC(=O)[C@H](Cc1c[nH]cn1)NC(=O)[C@@H](CCCCNC(=O)CC[C@H](NC(=O)CC[C@H](NC(=O)CC[C@H](NC(=O)CCCCCCCCCCCCCCCCC(=O)O)C(=O)O)C(=O)O)C(=O)O)NC(=O)[C@H](CCC(=O)O)NC(=O)[C@H](CC(N)=O)NC(=O)[C@H](C)NC(=O)[C@H](CC(C)C)NC(=O)[C@H](CCCNC(=N)N)NC(=O)[C@H](CCC(N)=O)NC(=O)[C@@H](NC(=O)[C@H](C)NC(=O)[C@@H]1CSSC[C@H](NC(=O)[C@@H](N)CO)C(=O)N[C@@H](CC(N)=O)C(=O)N[C@@H]([C@@H](C)O)C(=O)N[C@@H](CO)C(=O)N[C@@H]([C@@H](C)O)C(=O)N1)[C@@H](C)O)C(=O)N[C@@H](CC(C)C)C(=O)N1CCC[C@H]1C(=O)N1CCC[C@H]1C(=O)N[C@H](C(=O)N[C@@H](CCCCN)C(=O)N[C@H](C(=O)NCC(=O)N[C@@H](CO)C(=O)N[C@@H](CCC(=O)O)C(=O)N[C@H](C(=O)N[C@@H](Cc1ccc(O)cc1)C(N)=O)[C@@H](C)O)C(C)C)[C@@H](C)O [Compound A104] (H-SCNTSTCATQRLANE[dK]([γGlu-γGlu-γGlu-C18 diacid])HKSSNNFGPILPPTKVGSETY-NH2; disulfide 2-7)	0.137	0.108	16.6
CCCCCCCCCCCCCCCC(=O)N[C@@H](CCC(=O)NCCCC[C@H](NC(=O)[C@@H]1CSSC[C@H](NC(=O)[C@@H](N)CO)C(=O)N[C@@H](CC(N)=O)C(=O)N[C@@H]([C@@H](C)O)C(=O)N[C@@H](CO)C(=O)N[C@@H]([C@@H](C)O)C(=O)N1)C(=O)N[C@H](C(=O)N[C@@H](CCC(N)=O)C(=O)N[C@@H](CCCNC(=N)N)C(=O)N[C@@H](CC(C)C)C(=O)N[C@@H](C)C(=O)N[C@@H](CC(N)=O)C(=O)N[C@@H](CCC(=O)O)C(=O)N[C@@H](CC(C)C)C(=O)N[C@@H](Cc1c[nH]cn1)C(=O)N[C@@H](CCCCN)C(=O)N[C@@H](CO)C(=O)N[C@@H](CO)C(=O)N[C@@H](CC(N)=O)C(=O)N[C@@H](CC(N)=O)C(=O)N[C@@H](Cc1ccccc1)C(=O)NCC(=O)N1CCC[C@H]1C(=O)N[C@H](C(=O)N[C@@H](CC(C)C)C(=O)N1CCC[C@H]1C(=O)N1CCC[C@H]1C(=O)N[C@H](C(=O)N[C@@H](CCCCN)C(=O)N[C@H](C(=O)NCC(=O)N[C@@H](CO)C(=O)N[C@@H](CCC(=O)O)C(=O)N[C@H](C(=O)N[C@@H](Cc1ccc(O)cc1)C(N)=O)[C@@H](C)O)C(C)C)[C@@H](C)O)[C@@H](C)CC)[C@@H](C)O)C(=O)O [Compound A108] (H-SCNTSTCK([γGlu-Palmitoyl])TQRLANELHKSSNNFGPILPPTKVGSETY-NH2; disulfide 2-7)	0.396	6.45	1.01
CC[C@H](C)[C@H](NC(=O)[C@@H]1CCCN1C(=O)CNC(=O)[C@H](Cc1ccccc1)NC(=O)[C@H](CC(N)=O)NC(=O)[C@H](CC(N)=O)NC(=O)[C@H](CO)NC(=O)[C@H](CO)NC(=O)[C@H](CCCCN)NC(=O)[C@H](CCC(N)=O)NC(=O)[C@H](CC(C)C)NC(=O)[C@H](Cc1ccccc1)NC(=O)[C@H](CC(N)=O)NC(=O)[C@H](C)NC(=O)[C@H](CC(C)C)NC(=O)[C@H](CCCNC(=N)N)NC(=O)[C@H](CO)NC(=O)[C@@H](NC(=O)[C@H](C)NC(=O)[C@@H]1CSSC[C@H](NC(=O)[C@@H](N)CCCCNC(=O)CC[C@H](NC(=O)CCCCCCCCCCCCCCCCC(=O)O)C(=O)O)C(=O)N[C@@H](CC(N)=O)C(=O)N[C@@H]([C@@H](C)O)C(=O)N[C@@H](CO)C(=O)N[C@@H]([C@@H](C)O)C(=O)N1)[C@@H](C)O)C(=O)N[C@@H](CC(C)C)C(=O)N1CCC[C@H]1C(=O)N1CCC[C@H]1C(=O)N[C@H](C(=O)N[C@@H](CCCCN)C(=O)N[C@H](C(=O)NCC(=O)N[C@@H](CO)C(=O)N[C@@H](CCC(=O)O)C(=O)N[C@H](C(=O)N[C@@H](Cc1ccc(O)cc1)C(N)=O)[C@@H](C)O)C(C)C)[C@@H](C)O [Compound A109] (H-K([γGlu-C18 diacid])CNTSTCATSRLANFLQKSSNNFGPILPPTKVGSETY-NH2; disulfide 2-7; N-terminus assumed)	0.154	0.15	16
CCCCCCCCCCCCCCCC(=O)N[C@@H](CCC(=O)NCCCC[C@H](NC(=O)[C@H](CCCNC(=N)N)NC(=O)[C@H](CCC(N)=O)NC(=O)[C@@H](NC(=O)[C@H](C)NC(=O)[C@@H]1CSSC[C@H](NC(=O)[C@@H](N)CO)C(=O)N[C@@H](CC(N)=O)C(=O)N[C@@H]([C@@H](C)O)C(=O)N[C@@H](CO)C(=O)N[C@@H]([C@@H](C)O)C(=O)N1)[C@@H](C)O)C(=O)N[C@@H](C)C(=O)N[C@@H](CC(N)=O)C(=O)N[C@@H](CCC(=O)O)C(=O)N[C@@H](CC(C)C)C(=O)N[C@@H](Cc1c[nH]cn1)C(=O)N[C@@H](CCCCN)C(=O)N[C@@H](CO)C(=O)N[C@@H](CO)C(=O)N[C@@H](CC(N)=O)C(=O)N[C@@H](CC(N)=O)C(=O)N[C@@H](Cc1ccccc1)C(=O)NCC(=O)N1CCC[C@H]1C(=O)N[C@H](C(=O)N[C@@H](CC(C)C)C(=O)N1CCC[C@H]1C(=O)N1CCC[C@H]1C(=O)N[C@H](C(=O)N[C@@H](CCCCN)C(=O)N[C@H](C(=O)NCC(=O)N[C@@H](CO)C(=O)N[C@@H](CCC(=O)O)C(=O)N[C@H](C(=O)N[C@@H](Cc1ccc(O)cc1)C(N)=O)[C@@H](C)O)C(C)C)[C@@H](C)O)[C@@H](C)CC)C(=O)O [Compound A121] (H-SCNTSTCATQRK([γGlu-Palmitoyl])ANELHKSSNNFGPILPPTKVGSETY-NH2; disulfide 2-7)	0.239	2.11	1.8
CCCCCCCCCCCCCCCC(=O)N[C@@H](CCC(=O)NCCOCCOCC(=O)NCCOCCOCC(=O)N[C@@H](CCC(=O)N[C@@H](CCC(=O)NCCCC[C@H](NC(=O)[C@H](CCC(=O)O)NC(=O)[C@H](CC(N)=O)NC(=O)[C@H](C)NC(=O)[C@H](CC(C)C)NC(=O)[C@H](CCCNC(=N)N)NC(=O)[C@H](CCC(N)=O)NC(=O)[C@@H](NC(=O)[C@H](C)NC(=O)[C@@H]1CSSC[C@H](NC(=O)[C@@H](N)CO)C(=O)N[C@@H](CC(N)=O)C(=O)N[C@@H]([C@@H](C)O)C(=O)N[C@@H](CO)C(=O)N[C@@H]([C@@H](C)O)C(=O)N1)[C@@H](C)O)C(=O)N[C@@H](Cc1c[nH]cn1)C(=O)N[C@@H](CCCCN)C(=O)N[C@@H](CO)C(=O)N[C@@H](CO)C(=O)N[C@@H](CC(N)=O)C(=O)N[C@@H](CC(N)=O)C(=O)N[C@@H](Cc1ccccc1)C(=O)NCC(=O)N1CCC[C@H]1C(=O)N[C@H](C(=O)N[C@@H](CC(C)C)C(=O)N1CCC[C@H]1C(=O)N1CCC[C@H]1C(=O)N[C@H](C(=O)N[C@@H](CCCCN)C(=O)N[C@H](C(=O)NCC(=O)N[C@@H](CO)C(=O)N[C@@H](CCC(=O)O)C(=O)N[C@H](C(=O)N[C@@H](Cc1ccc(O)cc1)C(N)=O)[C@@H](C)O)C(C)C)[C@@H](C)O)[C@@H](C)CC)C(=O)O)C(=O)O)C(=O)O [Compound A122] (H-SCNTSTCATQRLANEK([γGlu-γGlu-AEEA-AEEA-γGlu-Palmitoyl])HKSSNNFGPILPPTKVGSETY-NH2; disulfide 2-7; N-terminus assumed)	0.763	1.95	5.13

From patent publication US12018059B2, “Human amylin analog polypeptides and methods of use” (Intarcia Therapeutics, Inc., priority 2018, dated 2024)
